Test results: patent US11117901B2, “Substituted pyrazolo[4,3-h]quinazolines as choline kinase inhibitors” (NERVIANO MEDICAL SCIENCES S.R.L., priority 2017, dated 2021)
Read-outs that look alike come from different tables or passages of the source.

What was measured:
[1] = target: T1, Δ49N-hChoKα (Homo sapiens, UniProt P35790); assay: Biochemical kinase inhibition assay (Kinase-Glo luminescent) on Δ49N-hChoKα; settings: ATP 5 μM, choline 5 μM, 60 min rt
T1 construct: cDNA fragment 362-1534, corresponding to aminoacids 50 457; GST (N, cleaved yes); PreScission Protease recognition site (N); made in house; host or cells: Escherichia coli BL21pLysS (DE3)
Procedure: (§1) HumanΔ49ChoKα ([…]Δ49N-hChoKα) cDNA fragment 362-1534, corresponding to aminoacids 50 457 (J. Mol. Biol. 2006, 364, 136-151), and hChoKβ full length (FL), corresponding to aminoacids 2-395 ((PLoS ONE 2009, 4, e7819), were amplified by PCR from human library and cloned, inserting upstream a Prescission Protease recognition site, in pDonor 221 vector, using the Gateway Technology® (Invitrogen). After sequence control, LR reaction was performed in the final expression pGEX 2Tg vector. Both the proteins were expressed in Escherichia coli BL21pLysS (DE3) strain in auto-induction (Kessler) medium in the presence of […] carbenicillin at 25° C. for 16 h. Cells were harvested by centrifugation, the pellet was re-suspended in Lysis buffer (50 mM Tris-HCl pH 7.8, 150 mM NaCl, 10% glycerol, 0.2% CHAPS, 20 mM DTT, Protease Inhibitor Cocktail Tablets from Roche Biochemicals) and lysed by Gaulin homogenizer (Niro Soavi). The lysate was cleared by centrifugation. The supernatant was added to GSH resin and let flow by gravity. The GSH resin was washed with 5 column volume (CV) of cold wash buffer (50 mM Tris-HCl pH 7.8, 150 mM NaCl, 10% glycerol), then with 10 CV of the same buffer containing 2 mM of DTT. Both GST-Δ49N-hChoKα and hChoKβ were subjected to on-column cleavage of the GST tag with Prescission Protease overnight. The eluted cleaved proteins were further purified by ion exchange (ResQ 6 mL chromatography column from GE healthcare) with a gradient from 50 to 500 mM NaCl in 30 CV. The fractions containing […]Δ49N-hChoKα or hChoKβ were pooled, concentrated and gel filtered on a Superdex200 16/60 (GE Healthcare). The final protein concentration was estimated using the Bradford assay. All the samples purified were resolved by SDS-PAGE.
(§2) Biochemical Kinase inhibition Assay on Δ49N-hChoKα and hChoKβFL
(§3) The biochemical activity of compounds against Δ49N-ChoKα and ChoK3 FL were determined using the Kinase-Glo™ Luminescent Kinase Assay (Promega cat. V6711). The assay is based on incubation of the recombinant Δ49N-hChoKα and hChoKβ FL produced in house, 2.2 nM and 30 nM, respectively, with the specific substrates, choline (Sigma-Aldrich-C7017) and ATP, followed by quantification, at the end of reaction time, of the residual not reacted ATP.
(§4) Compounds were 3-fold serially diluted from 10 to 0.0005 μM, then incubated for 60 minutes at room temperature in the presence of ATP 5 μM, choline (5 μM for ChoKα and 20 μM for ChoKβ) and enzyme in a final volume of 19 μL of kinase buffer (50 mM Hepes pH 7.5, 10 mM MgCl2, 1 mM DTT, 3 μM Na3VO4 and 0.2 mg/mL BSA). The final concentration of DMSO was 1%. The assay was run in a robotized format on 384-well plates (Perkin Elmer cat. #6005301).
(§5) At the end of the incubation, an amount of 19 μL of KinaseGlo Reagent was added to each well to stop the reaction and after 30 minutes the luminescence signal was measured using ViewLux reader (Perkin Elmer).
(§6) All information about plate dilution, distribution and raw data of inhibition are tracked via barcode reading and stored in an Oracle DB. The data per each molecule are analyzed by an internally customized version of the SW package “Assay Explorer” which provides sigmoidal fittings of the ten-dilution curves for IC50 determination using a 4 parameter logistic equation: y=bottom+(top−bottom)/(1+10^((log IC50−x)*slope)) where x is the logarithm of the inhibitor concentration, y is the response; y starts at bottom and goes to top with a sigmoid shape.

[2] = target: T2, hChoKβ FL (Homo sapiens, UniProt Q9Y259); assay: Biochemical kinase inhibition assay (Kinase-Glo luminescent) on hChoKβ FL; settings: ATP 5 μM, choline 20 μM, 60 min rt
T2 construct: hChoKβ full length (FL), corresponding to aminoacids 2-395; GST (N, cleaved yes); PreScission Protease recognition site (N); made in house; host or cells: Escherichia coli BL21pLysS (DE3)
Procedure: as §1, §2, §3, §4, §5, §6

[3] = recombinant Δ49N-hChoKα 2.2 nM, read-out: ChoKα IC50
[4] = recombinant hChoKβ FL 30 nM, read-out: ChoKβ IC50

T2 sequence (Q9Y259 2-395): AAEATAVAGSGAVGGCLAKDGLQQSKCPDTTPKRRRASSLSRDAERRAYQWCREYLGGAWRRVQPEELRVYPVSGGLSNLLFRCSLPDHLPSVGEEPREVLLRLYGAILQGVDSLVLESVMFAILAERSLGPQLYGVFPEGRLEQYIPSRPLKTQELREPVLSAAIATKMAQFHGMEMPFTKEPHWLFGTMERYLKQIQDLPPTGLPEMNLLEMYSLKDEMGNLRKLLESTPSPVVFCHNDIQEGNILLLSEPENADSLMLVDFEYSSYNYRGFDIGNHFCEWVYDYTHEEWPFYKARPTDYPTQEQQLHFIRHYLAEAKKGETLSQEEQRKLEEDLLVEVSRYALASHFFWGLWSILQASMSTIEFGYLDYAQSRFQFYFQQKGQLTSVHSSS
T1 sequence (P35790 50-439 isoform P35790-2): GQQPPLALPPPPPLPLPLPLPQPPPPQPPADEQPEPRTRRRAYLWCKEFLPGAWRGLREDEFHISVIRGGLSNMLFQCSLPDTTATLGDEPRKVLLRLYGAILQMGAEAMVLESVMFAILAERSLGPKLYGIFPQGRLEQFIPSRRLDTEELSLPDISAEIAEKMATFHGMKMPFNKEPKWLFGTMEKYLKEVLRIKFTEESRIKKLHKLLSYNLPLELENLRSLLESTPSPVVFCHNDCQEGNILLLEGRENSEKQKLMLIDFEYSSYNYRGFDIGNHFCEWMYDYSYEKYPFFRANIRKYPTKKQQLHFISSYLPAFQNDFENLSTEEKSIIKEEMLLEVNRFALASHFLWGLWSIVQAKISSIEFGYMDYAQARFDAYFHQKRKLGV

## CC1(C)Cc2cnc(N)nc2-c2[nH]nc(C(=O)Nc3nc(CC(=O)N4CCC(=O)CC4)cs3)c21 [compound 45]
[1]; ChoKα IC50, recombinant Δ49N-hChoKα 2.2 nM
  IC50: 0.121 µM
[2]; ChoKβ IC50, recombinant hChoKβ FL 30 nM
  IC50: > 10 µM

## CC1CCN(C2CCN(C(=O)c3ccc4nc(NC(=O)c5n[nH]c6c5C(C)(C)Cc5cnc(N)nc5-6)sc4c3)CC2)CC1 [compound 228]
[1]; [3]
  IC50: 0.009 µM
[2]; [4]
  IC50: 0.963 µM

## CC1(C)Cc2cnc(N)nc2-c2[nH]nc(C(=O)Nc3nc(CC(=O)O)cs3)c21 [compound 42]
[1]; [3]
  IC50: 0.054 µM
[2]; [4]
  IC50: > 10 µM

## CN(C)C1CCN(C(=O)c2ccc(NC(=O)c3n[nH]c4c3C(C)(C)Cc3cnc(N)nc3-4)cc2)CC1 [compound 14]
[1]; [3]
  IC50: 0.198 µM
[2]; [4]
  IC50: 0.037 µM

## CC1(C)Cc2cnc(N)nc2-c2[nH]nc(C(=O)Nc3cccc(C4OCCCO4)c3)c21 [compound 106]
[1]; [3]
  IC50: 0.343 µM
[2]; [4]
  IC50: 5.2 µM

## CC1(C)Cc2cnc(N)nc2-c2[nH]nc(C(=O)Nc3nccs3)c21 [compound 61]
[1]; [3]
  IC50: 0.241 µM
[2]; [4]
  IC50: 2.63 µM

## CC1(C)Cc2cnc(N)nc2-c2[nH]nc(C(=O)Nc3nc(COC4CCN(Cc5ccccc5)CC4)cs3)c21 [compound 213]
[1]; [3]
  IC50: 0.016 µM
[2]; [4]
  IC50: 0.45 µM

## CC1(C)Cc2cnc(N)nc2-c2[nH]nc(C(=O)Nc3ccc(C(=O)NC4CC4)cc3)c21 [compound 31]
[1]; [3]
  IC50: 0.257 µM
[2]; [4]
  IC50: 0.431 µM

## CN1CCC(NC(=O)c2ccc(NC(=O)c3n[nH]c4c3C(C)(C)Cc3cnc(N)nc3-4)cc2)CC1 [compound 8]
[1]; [3]
  IC50: 0.087 µM
[2]; [4]
  IC50: 0.565 µM

## CC1(C)Cc2cnc(N)nc2-c2[nH]nc(C(=O)Nc3nc(C(=O)NC4CCCCC4)cs3)c21 [compound 68]
[1]; [3]
  IC50: 0.161 µM
[2]; [4]
  IC50: > 10 µM

## Cn1nc(C(=O)Nc2ccc(CN3CCC(N4CCCCC4)CC3)cc2)c2c1-c1nc(N)ncc1CC2(C)C [compound 128]
[1]; [3]
  IC50: 0.126 µM
[2]; [4]
  IC50: > 10 µM

## CC1CCN(C2CCN(C(=O)Cc3csc(NC(=O)c4n[nH]c5c4C(C)(C)Cc4cnc(N)nc4-5)n3)CC2)CC1 [compound 58]
[1]; [3]
  IC50: 0.002 µM
[2]; [4]
  IC50: 0.081 µM

## CC1(C)Cc2cnc(N)nc2-c2[nH]nc(C(=O)Nc3nc4ccccc4s3)c21 [compound 62]
[1]; [3]
  IC50: 0.085 µM
[2]; [4]
  IC50: 0.465 µM

## CC1(C)Cc2cnc(N)nc2-c2[nH]nc(C(=O)Nc3ccc(C(=O)NC4CCC4)cc3)c21 [compound 30]
[1]; [3]
  IC50: 0.11 µM
[2]; [4]
  IC50: 0.136 µM

## COc1ccc2nc(NC(=O)c3n[nH]c4c3C(C)(C)Cc3cnc(N)nc3-4)sc2c1 [compound 63]
[1]; [3]
  IC50: 0.026 µM
[2]; [4]
  IC50: 0.447 µM

## Cn1nc(C(=O)Nc2nc(CN3CCC(N4CCCCC4)CC3)cs2)c2c1-c1nc(N)ncc1CC2(C)C [compound 141]
[1]; [3]
  IC50: 0.622 µM
[2]; [4]
  IC50: > 10 µM

## CN1CCC(NC(=O)c2ccc(CNC(=O)c3n[nH]c4c3C(C)(C)Cc3cnc(N)nc3-4)cc2)CC1 [compound 166]
[1]; [3]
  IC50: 0.136 µM
[2]; [4]
  IC50: 0.134 µM

## CC1(C)Cc2cnc(N)nc2-c2[nH]nc(C(=O)Nc3ncc(CC(=O)O)s3)c21 [compound 72]
[1]; [3]
  IC50: 0.268 µM
[2]; [4]
  IC50: 2.51 µM

## Cc1cnc(NC(=O)c2n[nH]c3c2C(C)(C)Cc2cnc(N)nc2-3)s1 [compound 65]
[1]; [3]
  IC50: 0.139 µM
[2]; [4]
  IC50: 1.61 µM

## Cc1csc(NC(=O)c2n[nH]c3c2C(C)(C)Cc2cnc(N)nc2-3)n1 [compound 32]
[1]; [3]
  IC50: 0.066 µM
[2]; [4]
  IC50: 1.09 µM

## CC1(C)Cc2cnc(N)nc2-c2[nH]nc(C(=O)N3CCN(c4ccccc4)CC3)c21 [compound 161]
[1]; [3]
  IC50: 0.507 µM
[2]; [4]
  IC50: > 10 µM
